Assay results taken from the NIST ThermoML archive (doi:10.1016/j.fluid.2014.11.020).
± gives the expanded uncertainty stated by the source.

Assay: activity coefficient (dimensionless); of the first substance listed, at infinite dilution; xn = mol fraction of the nth substance listed
Conditions: Liquid, Chromatography, x1 = 0

With `CC(C)OC(C)C` [diisopropyl ether] + CCCOC[n+]1ccn(C)c1.F[B-](F)(F)F as the compound, how does the activity coefficient (323.15 K) read?
Its activity coefficient is 32.7 ± 2.2.

And the activity coefficient (333.15 K)?
Its activity coefficient is 28.5 ± 1.9.

What about the activity coefficient (343.15 K) of the same compound?
Its activity coefficient is 26.4 ± 1.8.

Which activity coefficient (323.15 K) does the source give for `CCCCCCCC` [octane] + CCCCCCCCn1cc[n+](COCCCOC[n+]2ccn(CCCCCCCC)c2C)c1C.O=S(=O)([N-]S(=O)(=O)C(F)(F)F)C(F)(F)F.O=S(=O)([N-]S(=O)(=O)C(F)(F)F)C(F)(F)F here?
Its activity coefficient is 5.97 ± 0.41.

What about the activity coefficient (333.15 K) of the same compound?
Its activity coefficient is 5.45 ± 0.37.

And the activity coefficient (343.15 K)?
The activity coefficient was 5.08 ± 0.35.

With `CC1CCCC1` [methylcyclopentane] + CCCOC[n+]1ccn(C)c1.N#C[N-]C#N as the compound, how does the activity coefficient (323.15 K) read?
The activity coefficient was 27.7 ± 1.9.

And the activity coefficient (333.15 K)?
The activity coefficient was 24.4 ± 1.7.

With `C#CCCCC` [1-hexyne] + N#C[N-]C#N.N#C[N-]C#N.c1ccc(Cn2cc[n+](COCCCOC[n+]3ccn(Cc4ccccc4)c3)c2)cc1 as the compound, how does the activity coefficient (323.15 K) read?
The activity coefficient was 14.1 ± 0.96.

And the activity coefficient (333.15 K)?
The activity coefficient was 11.7 ± 0.8.

Which results are given for `CCCCCCCCC` [nonane] + Cn1cc[n+](COCCCOC[n+]2ccn(C)c2)c1.O=S(=O)([N-]S(=O)(=O)C(F)(F)F)C(F)(F)F.O=S(=O)([N-]S(=O)(=O)C(F)(F)F)C(F)(F)F?
activity coefficient (323.15 K): 105 ± 7.2; activity coefficient (333.15 K): 96.7 ± 6.6; activity coefficient (343.15 K): 72.4 ± 5

For `CCc1ccccc1` [ethylbenzene] + CCCOC[n+]1ccn(C)c1.N#C[N-]C#N, which activity coefficient (323.15 K) is on record?
Its activity coefficient is 6 ± 0.41.

What about the activity coefficient (333.15 K) of the same compound?
Its activity coefficient is 6.06 ± 0.41.

What about the activity coefficient (343.15 K) of the same compound?
The activity coefficient was 6.12 ± 0.42.

What does the source list for `Cc1ccc(C)cc1` [1,4-dimethylbenzene] + CCCCCCCCn1cc[n+](COCCC)c1C.N#C[N-]C#N?
activity coefficient (323.15 K): 1.51 ± 0.1; activity coefficient (333.15 K): 1.52 ± 0.1; activity coefficient (343.15 K): 1.56 ± 0.1

Which activity coefficient (323.15 K) does the source give for `C1COCCO1` [1,4-dioxane] + N#C[N-]C#N.N#C[N-]C#N.c1ccc(Cn2cc[n+](COCCCOC[n+]3ccn(Cc4ccccc4)c3)c2)cc1 here?
Its activity coefficient is 1.32 ± 0.09.

What about the activity coefficient (333.15 K) of the same compound?
The activity coefficient was 1.32 ± 0.09.

And the activity coefficient (343.15 K)?
The activity coefficient was 1.35 ± 0.09.

For `C#CCCCCC` [1-heptyne] + CCCOC[n+]1ccn(Cc2ccccc2)c1.N#C[N-]C#N, which activity coefficient (323.15 K) is on record?
Its activity coefficient is 6.34 ± 0.43.

And the activity coefficient (333.15 K)?
The activity coefficient was 6.08 ± 0.41.

Which results are given for `C1CCCCCC1` [cycloheptane] + CCCOC[n+]1ccn(C)c1.F[B-](F)(F)F?
activity coefficient (323.15 K): 153 ± 11; activity coefficient (333.15 K): 240 ± 16; activity coefficient (343.15 K): 245 ± 17

Which results are given for `CCc1ccccc1` [ethylbenzene] + CN(C)c1cc[n+](COCCCOC[n+]2ccc(N(C)C)cc2)cc1.O=S(=O)([N-]S(=O)(=O)C(F)(F)F)C(F)(F)F.O=S(=O)([N-]S(=O)(=O)C(F)(F)F)C(F)(F)F?
activity coefficient (323.15 K): 1.46 ± 0.1; activity coefficient (333.15 K): 1.49 ± 0.1; activity coefficient (343.15 K): 1.5 ± 0.1

What does the source list for `c1ccsc1` [thiophene] + CCCOC[n+]1ccn(C)c1.F[B-](F)(F)F?
activity coefficient (323.15 K): 2.26 ± 0.15; activity coefficient (333.15 K): 2.27 ± 0.15; activity coefficient (343.15 K): 2.27 ± 0.15

Which activity coefficient (323.15 K) does the source give for `CCCCCCCCCC` [decane] + N#C[N-]C#N.N#C[N-]C#N.c1ccc(Cn2cc[n+](COCCCOC[n+]3ccn(Cc4ccccc4)c3)c2)cc1 here?
The activity coefficient was 420 ± 29.

And the activity coefficient (333.15 K)?
The activity coefficient was 371 ± 25.

What about the activity coefficient (343.15 K) of the same compound?
Its activity coefficient is 321 ± 22.

With `C1COCCO1` [1,4-dioxane] + Cn1cc[n+](COCCCOC[n+]2ccn(C)c2)c1.O=S(=O)([N-]S(=O)(=O)C(F)(F)F)C(F)(F)F.O=S(=O)([N-]S(=O)(=O)C(F)(F)F)C(F)(F)F as the compound, how does the activity coefficient (323.15 K) read?
Its activity coefficient is 0.37 ± 0.03.

What about the activity coefficient (333.15 K) of the same compound?
Its activity coefficient is 0.39 ± 0.03.

What about the activity coefficient (343.15 K) of the same compound?
The activity coefficient was 0.39 ± 0.03.

For `CC(C)CC(C)(C)C` [2,2,4-trimethylpentane] + CCCCCCCCn1cc[n+](COCCCOC[n+]2ccn(CCCCCCCC)c2C)c1C.N#C[N-]C#N.N#C[N-]C#N, which activity coefficient (323.15 K) is on record?
Its activity coefficient is 11.4 ± 0.78.

And the activity coefficient (333.15 K)?
The activity coefficient was 10.5 ± 0.72.

What about the activity coefficient (343.15 K) of the same compound?
Its activity coefficient is 9.74 ± 0.66.

Which activity coefficient (323.15 K) does the source give for `CCCCO` [butan-1-ol] + CCCOC[n+]1ccn(C)c1.N#C[N-]C#N here?
Its activity coefficient is 1.37 ± 0.09.

And the activity coefficient (333.15 K)?
The activity coefficient was 1.32 ± 0.09.

What about the activity coefficient (343.15 K) of the same compound?
The activity coefficient was 1.27 ± 0.08.

With `CCCCCCC` [heptane] + CCCCCCCCn1cc[n+](COCCCOC[n+]2ccn(CCCCCCCC)c2C)c1C.N#C[N-]C#N.N#C[N-]C#N as the compound, how does the activity coefficient (323.15 K) read?
The activity coefficient was 11.6 ± 0.79.

What about the activity coefficient (333.15 K) of the same compound?
The activity coefficient was 8.65 ± 0.59.

And the activity coefficient (343.15 K)?
Its activity coefficient is 8.8 ± 0.6.

With `C1CCCCCC1` [cycloheptane] + CCCOC[n+]1ccn(C)c1.N#C[N-]C#N as the compound, how does the activity coefficient (323.15 K) read?
The activity coefficient was 79.2 ± 5.4.

And the activity coefficient (333.15 K)?
Its activity coefficient is 105 ± 7.2.

And the activity coefficient (343.15 K)?
Its activity coefficient is 133 ± 9.1.

With `CCc1ccccc1` [ethylbenzene] + CCCCCCCCn1cc[n+](COCCCOC[n+]2ccn(CCCCCCCC)c2C)c1C.N#C[N-]C#N.N#C[N-]C#N as the compound, how does the activity coefficient (323.15 K) read?
Its activity coefficient is 1.32 ± 0.09.

What about the activity coefficient (333.15 K) of the same compound?
The activity coefficient was 1.34 ± 0.09.

What about the activity coefficient (343.15 K) of the same compound?
The activity coefficient was 1.36 ± 0.09.

For `CC1CCCCC1` [methylcyclohexane] + CN(C)c1cc[n+](COCCCOC[n+]2ccc(N(C)C)cc2)cc1.O=S(=O)([N-]S(=O)(=O)C(F)(F)F)C(F)(F)F.O=S(=O)([N-]S(=O)(=O)C(F)(F)F)C(F)(F)F, which activity coefficient (323.15 K) is on record?
The activity coefficient was 13.9 ± 0.95.

What about the activity coefficient (333.15 K) of the same compound?
The activity coefficient was 12.7 ± 0.87.

What about the activity coefficient (343.15 K) of the same compound?
Its activity coefficient is 11.8 ± 0.8.

Which activity coefficient (323.15 K) does the source give for `C#CCCCCC` [1-heptyne] + CCCOC[n+]1ccn(C)c1.F[B-](F)(F)F here?
The activity coefficient was 16.6 ± 1.1.

What about the activity coefficient (333.15 K) of the same compound?
The activity coefficient was 16.7 ± 1.1.

What about the activity coefficient (343.15 K) of the same compound?
Its activity coefficient is 16.7 ± 1.1.

For `CCCCO` [butan-1-ol] + CCCOC[n+]1ccc(N(C)C)cc1.O=S(=O)([N-]S(=O)(=O)C(F)(F)F)C(F)(F)F, which activity coefficient (323.15 K) is on record?
Its activity coefficient is 2.25 ± 0.15.

And the activity coefficient (333.15 K)?
The activity coefficient was 2.04 ± 0.14.

And the activity coefficient (343.15 K)?
Its activity coefficient is 1.85 ± 0.12.
